± gives the expanded uncertainty stated by the source.
Experiment: xn = mol fraction of the nth substance listed
Conditions: 101 kPa, Liquid; for speed of sound: Sing-around technique in a fixed-path interferometer; for viscosity: Capillary tube (Ostwald / Ubbelohde) method

NCCN [ethane-1,2-diamine] + CCCCO
Conditions | mass density [kg/m3] | speed of sound [m/s] | viscosity [mPa·s]
293.15 K, x1 = 0.0528 | 815.585 ± 0.45 | 1279.7 ± 0.9 | –
293.15 K, x1 = 0.1135 | 822.116 ± 0.45 | 1302.1 ± 0.9 | –
293.15 K, x1 = 0.1488 | 825.769 ± 0.44 | 1315.9 ± 0.9 | –
293.15 K, x1 = 0.214 | 832.273 ± 0.44 | 1341.7 ± 1 | –
293.15 K, x1 = 0.2602 | 836.674 ± 0.44 | 1360.5 ± 1 | –
293.15 K, x1 = 0.3286 | 842.718 ± 0.43 | 1387.1 ± 1 | –
293.15 K, x1 = 0.3985 | 848.216 ± 0.43 | 1414.5 ± 1.1 | –
293.15 K, x1 = 0.5036 | 856.28 ± 0.43 | 1456.5 ± 1.1 | –
293.15 K, x1 = 0.5965 | 863.365 ± 0.43 | 1494.7 ± 1.2 | –
293.15 K, x1 = 0.7081 | 872.153 ± 0.43 | 1543.9 ± 1.2 | –
293.15 K, x1 = 0.7931 | 879.359 ± 0.44 | 1584.7 ± 1.3 | –
293.15 K, x1 = 0.8504 | 884.315 ± 0.44 | 1613.6 ± 1.3 | –
293.15 K, x1 = 0.8979 | 888.772 ± 0.44 | 1639.1 ± 1.3 | –
293.15 K, x1 = 0.936 | 892.567 ± 0.44 | 1660.5 ± 1.3 | –
298.15 K, x1 = 0.0528 | 811.698 ± 0.46 | 1262.9 ± 0.9 | 2.609 ± 0.016
298.15 K, x1 = 0.1135 | 818.144 ± 0.45 | 1285 ± 0.9 | 2.591 ± 0.016
298.15 K, x1 = 0.1488 | 821.746 ± 0.45 | 1298.6 ± 0.9 | 2.584 ± 0.016
298.15 K, x1 = 0.214 | 828.164 ± 0.44 | 1324.3 ± 1 | 2.53 ± 0.016
298.15 K, x1 = 0.2602 | 832.509 ± 0.44 | 1342.9 ± 1 | 2.484 ± 0.016
298.15 K, x1 = 0.3283 | – | – | 2.412 ± 0.016
298.15 K, x1 = 0.3286 | 838.245 ± 0.44 | 1368.8 ± 1 | –
298.15 K, x1 = 0.3985 | 843.943 ± 0.44 | 1396.3 ± 1.1 | 2.327 ± 0.016
298.15 K, x1 = 0.5036 | 851.943 ± 0.44 | 1437.7 ± 1.1 | 2.184 ± 0.015
298.15 K, x1 = 0.5965 | 858.974 ± 0.44 | 1475.5 ± 1.1 | 2.03 ± 0.015
298.15 K, x1 = 0.7081 | 867.696 ± 0.44 | 1523.9 ± 1.2 | 1.842 ± 0.014
298.15 K, x1 = 0.7931 | 874.839 ± 0.44 | 1564.1 ± 1.3 | 1.697 ± 0.013
298.15 K, x1 = 0.8504 | 879.75 ± 0.45 | 1592.5 ± 1.3 | 1.604 ± 0.013
298.15 K, x1 = 0.8979 | 884.168 ± 0.45 | 1617.5 ± 1.3 | 1.538 ± 0.013
298.15 K, x1 = 0.936 | 887.932 ± 0.45 | 1638.7 ± 1.3 | 1.481 ± 0.012
303.15 K, x1 = 0.0528 | 807.785 ± 0.46 | 1245.9 ± 0.9 | 2.298 ± 0.015
303.15 K, x1 = 0.1135 | 814.153 ± 0.46 | 1267.9 ± 0.9 | 2.3 ± 0.015
303.15 K, x1 = 0.1488 | 817.703 ± 0.45 | 1281.4 ± 0.9 | 2.292 ± 0.015
303.15 K, x1 = 0.214 | 824.038 ± 0.45 | 1306.8 ± 1 | 2.245 ± 0.015
303.15 K, x1 = 0.2602 | 828.329 ± 0.45 | 1325.3 ± 1 | 2.213 ± 0.015
303.15 K, x1 = 0.3283 | – | – | 2.147 ± 0.015
303.15 K, x1 = 0.3286 | 833.896 ± 0.45 | 1350.9 ± 1 | –
303.15 K, x1 = 0.3985 | 839.656 ± 0.44 | 1378.1 ± 1.1 | 2.071 ± 0.014
303.15 K, x1 = 0.5036 | 847.599 ± 0.44 | 1419.1 ± 1.1 | 1.942 ± 0.014
303.15 K, x1 = 0.5965 | 854.57 ± 0.45 | 1456.3 ± 1.1 | 1.813 ± 0.013
303.15 K, x1 = 0.7081 | 863.224 ± 0.45 | 1504 ± 1.2 | 1.648 ± 0.013
303.15 K, x1 = 0.7931 | 870.306 ± 0.45 | 1543.5 ± 1.2 | 1.531 ± 0.012
303.15 K, x1 = 0.8504 | 875.173 ± 0.45 | 1571.4 ± 1.3 | 1.448 ± 0.012
303.15 K, x1 = 0.8979 | 879.552 ± 0.45 | 1596.1 ± 1.3 | 1.381 ± 0.012
303.15 K, x1 = 0.936 | 883.288 ± 0.45 | 1616.8 ± 1.3 | 1.334 ± 0.011
308.15 K, x1 = 0.0528 | 803.849 ± 0.47 | 1228.5 ± 0.9 | 2.001 ± 0.013
308.15 K, x1 = 0.1135 | 810.137 ± 0.46 | 1250.7 ± 0.9 | 2.009 ± 0.013
308.15 K, x1 = 0.1488 | 813.64 ± 0.46 | 1264.3 ± 0.9 | 1.995 ± 0.013
308.15 K, x1 = 0.214 | 819.892 ± 0.46 | 1289.5 ± 1 | 1.954 ± 0.013
308.15 K, x1 = 0.2602 | 824.133 ± 0.45 | 1307.8 ± 1 | 1.923 ± 0.013
308.15 K, x1 = 0.3283 | – | – | 1.866 ± 0.013
308.15 K, x1 = 0.3286 | 829.828 ± 0.45 | 1333.6 ± 1 | –
308.15 K, x1 = 0.3985 | 835.352 ± 0.45 | 1360 ± 1 | 1.798 ± 0.013
308.15 K, x1 = 0.5036 | 843.235 ± 0.45 | 1400.4 ± 1.1 | 1.697 ± 0.013
308.15 K, x1 = 0.5965 | 850.157 ± 0.45 | 1437.1 ± 1.1 | 1.601 ± 0.012
308.15 K, x1 = 0.7081 | 858.739 ± 0.45 | 1484.2 ± 1.2 | 1.471 ± 0.012
308.15 K, x1 = 0.7931 | 865.762 ± 0.46 | 1523 ± 1.2 | 1.377 ± 0.011
308.15 K, x1 = 0.8504 | 870.584 ± 0.46 | 1550.5 ± 1.3 | 1.314 ± 0.011
308.15 K, x1 = 0.8979 | 874.924 ± 0.46 | 1574.8 ± 1.3 | 1.25 ± 0.011
308.15 K, x1 = 0.936 | 878.628 ± 0.46 | 1595.3 ± 1.3 | 1.198 ± 0.011
313.15 K, x1 = 0.0528 | 799.876 ± 0.47 | 1210.7 ± 0.9 | –
313.15 K, x1 = 0.1135 | 806.088 ± 0.47 | 1233.6 ± 0.9 | –
313.15 K, x1 = 0.1488 | 809.548 ± 0.47 | 1247.2 ± 0.9 | –
313.15 K, x1 = 0.214 | 815.723 ± 0.46 | 1272.3 ± 1 | –
313.15 K, x1 = 0.2602 | 819.91 ± 0.46 | 1290.4 ± 1 | –
313.15 K, x1 = 0.3286 | 825.879 ± 0.46 | 1315.8 ± 1 | –
313.15 K, x1 = 0.3985 | 831.025 ± 0.46 | 1341.9 ± 1 | –
313.15 K, x1 = 0.5036 | 838.849 ± 0.46 | 1381.7 ± 1.1 | –
313.15 K, x1 = 0.5965 | 845.718 ± 0.46 | 1418.1 ± 1.1 | –
313.15 K, x1 = 0.7081 | 854.232 ± 0.46 | 1464.4 ± 1.2 | –
313.15 K, x1 = 0.7931 | 861.194 ± 0.46 | 1502.7 ± 1.2 | –
313.15 K, x1 = 0.8504 | 865.971 ± 0.46 | 1529.7 ± 1.3 | –
313.15 K, x1 = 0.8979 | 870.277 ± 0.46 | 1553.1 ± 1.3 | –
313.15 K, x1 = 0.936 | 873.95 ± 0.47 | 1573.7 ± 1.3 | –
